Measurements: ChEMBL document CHEMBL3045393, “Aryldiones incorporating a [1,4,5]oxadiazepane ring. Part I: Discovery of the novel cereal herbicide pinoxaden” (Bioorg Med Chem, 2009)

Legend:
Avena fatua [1] = assay: Post-emergence herbicidal activity against Avena fatua at 2000 g a.i./ha after 21 days; type: functional
Setaria faberi [2] = assay: Post-emergence herbicidal activity against Setaria faberi (Giant Foxtail) at 500 g a.i./ha after 21 days; type: functional
Avena fatua [3] = assay: Post-emergence herbicidal activity against Avena fatua at 500 g a.i./ha after 21 days; type: functional
Lolium perenne [4] = assay: Post-emergence herbicidal activity against Lolium perenne (perennial ryegrass) at 2000 g a.i./ha after 21 days; type: functional
Lolium perenne [5] = assay: Post-emergence herbicidal activity against Lolium perenne (perennial ryegrass) at 500 g a.i./ha after 21 days; type: functional
Setaria faberi [6] = assay: Post-emergence herbicidal activity against Setaria faberi (Giant Foxtail) at 2000 g a.i./ha after 21 days; type: functional
Hordeum vulgare [7] = assay: Phytotoxicity against Hordeum vulgare (barley) at 500 g a.i./ha applied post-emergence measured after 15 days; type: organism-based; conditions: in vivo, other, 360 h
Triticum aestivum [8] = assay: Phytotoxicity against Triticum aestivum (wheat) at 500 g a.i./ha applied post-emergence measured after 15 days; type: organism-based; conditions: in vivo, other, 360 h
Alopecurus myosuroides [9] = assay: Post-emergence herbicidal activity against Alopecurus myosuroides at 500 g a.i./ha measured after 15 days; type: functional
Setaria faberi [10] = assay: Post-emergence herbicidal activity against Setaria faberi (Giant Foxtail) at 500 g a.i./ha measured after 15 days; type: functional
Avena fatua [11] = assay: Post-emergence herbicidal activity against Avena fatua at 500 g a.i./ha measured after 15 days; type: functional
Lolium perenne [12] = assay: Post-emergence herbicidal activity against Lolium perenne (perennial ryegrass) at 500 g a.i./ha measured after 15 days; type: functional
Alopecurus myosuroides [13] = assay: Post-emergence herbicidal activity against Alopecurus myosuroides at 30 g a.i./ha measured after 21 days in presence of 1% Merge adjuvant; type: functional
Setaria faberi [14] = assay: Post-emergence herbicidal activity against Setaria faberi (Giant Foxtail) at 30 g a.i./ha measured after 21 days in presence of 1% Merge adjuvant; type: functional
Lolium perenne [15] = assay: Post-emergence herbicidal activity against Lolium perenne (perennial ryegrass) at 30 g a.i./ha measured after 21 days in presence of 1% Merge adjuvant; type: functional
Avena fatua [16] = assay: Post-emergence herbicidal activity against Avena fatua at 30 g a.i./ha measured after 21 days in presence of 1% Merge adjuvant; type: functional
Triticum aestivum [17] = assay: Phytotoxicity against Triticum aestivum (wheat) at 30 g a.i./ha applied post-emergence measured after 21 days in presence of 1% Merge adjuvant; type: organism-based; conditions: in vivo, other, 504 h
Hordeum vulgare [18] = assay: Phytotoxicity against Hordeum vulgare (barley) at 30 g a.i./ha applied post-emergence measured after 21 days in presence of 1% Merge adjuvant; type: organism-based; conditions: in vivo, other, 504 h
Hordeum vulgare [19] = assay: Phytotoxicity against Hordeum vulgare (barley) at 250 g a.i./ha applied post-emergence measured after 21 days in presence of 1% Merge adjuvant; type: organism-based; conditions: in vivo, other, 504 h
Lolium perenne [20] = assay: Post-emergence herbicidal activity against Lolium perenne (perennial ryegrass) at 250 g a.i./ha measured after 21 days in presence of 1% Merge adjuvant; type: functional
Setaria faberi [21] = assay: Post-emergence herbicidal activity against Setaria faberi (Giant Foxtail) at 250 g a.i./ha measured after 21 days in presence of 1% Merge adjuvant; type: functional
Avena fatua [22] = assay: Post-emergence herbicidal activity against Avena fatua at 250 g a.i./ha measured after 21 days in presence of 1% Merge adjuvant; type: functional
Triticum aestivum [23] = assay: Phytotoxicity against Triticum aestivum (wheat) at 250 g a.i./ha applied post-emergence measured after 21 days in presence of 1% Merge adjuvant; type: organism-based; conditions: in vivo, other, 504 h
Alopecurus myosuroides [24] = assay: Post-emergence herbicidal activity against Alopecurus myosuroides at 250 g a.i./ha measured after 21 days in presence of 1% Merge adjuvant; type: functional

Cc1cc(C)c(-c2c(OC(=O)C(C)(C)C)n3n(c2=O)CCS(=O)(=O)CC3)c(C)c1
Activity (Avena fatua [1]): 80%
Activity (Setaria faberi [2]): 10%
Activity (Avena fatua [3]): 20%
Activity (Lolium perenne [4]): 50%
Activity (Lolium perenne [5]): 10%
Activity (Setaria faberi [6]): 50%

Cc1cc(C)c(C2C(=O)N3CC(C)CN3C2=O)c(C)c1
Activity (Hordeum vulgare [7]): 50%
Activity (Triticum aestivum [8]): 40%
Activity (Alopecurus myosuroides [9]): 50%
Activity (Setaria faberi [10]): 50%
Activity (Avena fatua [11]): 90%
Activity (Lolium perenne [12]): 60%

Cc1cc(C)c(C2C(=O)N3CCC(C)CCN3C2=O)c(C)c1
Activity (Hordeum vulgare [7]): 60%
Activity (Triticum aestivum [8]): 20%
Activity (Alopecurus myosuroides [9]): 90%
Activity (Setaria faberi [10]): 60%
Activity (Avena fatua [11]): 90%
Activity (Lolium perenne [12]): 80%

Cc1cc(C)c(C2C(=O)N3CC(C)C(C)CN3C2=O)c(C)c1 (stereo not given)
Activity (Hordeum vulgare [7]): 60%
Activity (Triticum aestivum [8]): 20%
Activity (Alopecurus myosuroides [9]): 80%
Activity (Setaria faberi [10]): 60%
Activity (Avena fatua [11]): 80%
Activity (Lolium perenne [12]): 80%

Cc1cc(C)c(C2C(=O)N3CC[S+]([O-])CCN3C2=O)c(C)c1
Activity (Avena fatua [1]): 80%
Activity (Setaria faberi [2]): 60%
Activity (Avena fatua [3]): 40%
Activity (Lolium perenne [4]): 80%
Activity (Lolium perenne [5]): 40%
Activity (Setaria faberi [6]): 90%

CCc1cc(C)cc(CC)c1-c1c(OCOC(=O)C(C)(C)C)n2n(c1=O)CCOCC2
Activity (Alopecurus myosuroides [13]): 60%
Activity (Setaria faberi [14]): 90%
Activity (Lolium perenne [15]): 100%
Activity (Avena fatua [16]): 100%
Activity (Triticum aestivum [17]): 10%
Activity (Hordeum vulgare [18]): 0%

Cc1cc(C)c(C2C(=O)N(C)N(C)C2=O)c(C)c1
Activity (Hordeum vulgare [7]): 20%
Activity (Triticum aestivum [8]): 10%
Activity (Alopecurus myosuroides [9]): 40%
Activity (Setaria faberi [10]): 80%
Activity (Avena fatua [11]): 40%
Activity (Lolium perenne [12]): 50%

Cc1cc(C)c(C2C(=O)N3CC(C)(C)CN3C2=O)c(C)c1
Activity (Hordeum vulgare [7]): 90%
Activity (Triticum aestivum [8]): 60%
Activity (Alopecurus myosuroides [9]): 100%
Activity (Setaria faberi [10]): 90%
Activity (Avena fatua [11]): 90%
Activity (Lolium perenne [12]): 90%

Cc1cc(C)c(C2C(=O)N3CCS(=O)(=O)CCN3C2=O)c(C)c1
Activity (Avena fatua [1]): 80%
Activity (Setaria faberi [2]): 20%
Activity (Avena fatua [3]): 60%
Activity (Lolium perenne [4]): 60%
Activity (Lolium perenne [5]): 20%
Activity (Setaria faberi [6]): 60%

Cc1cc(C)c(C2C(=O)N3CCCN3C2=O)c(C)c1
Activity (Hordeum vulgare [7]): 40%
Activity (Triticum aestivum [8]): 0%
Activity (Alopecurus myosuroides [9]): 40%
Activity (Setaria faberi [10]): 40%
Activity (Avena fatua [11]): 20%
Activity (Lolium perenne [12]): 80%

Cc1cc(C)c(-c2c(OC(=O)C(C)(C)C)n3n(c2=O)CCSCC3)c(C)c1
Activity (Avena fatua [1]): 90%
Activity (Setaria faberi [2]): 60%
Activity (Avena fatua [3]): 50%
Activity (Lolium perenne [4]): 80%
Activity (Lolium perenne [5]): 40%
Activity (Setaria faberi [6]): 100%

CCc1cc(C)cc(CC)c1-c1c(OS(=O)(=O)N(C)C)n2n(c1=O)CCOCC2
Activity (Alopecurus myosuroides [13]): 0%
Activity (Setaria faberi [14]): 20%
Activity (Lolium perenne [15]): 50%
Activity (Avena fatua [16]): 10%
Activity (Triticum aestivum [17]): 0%
Activity (Hordeum vulgare [18]): 0%

Cc1cc(C)c(C2C(=O)N3CCCOCN3C2=O)c(C)c1 (stereo not given)
Activity (Hordeum vulgare [19]): 10%
Activity (Lolium perenne [20]): 20%
Activity (Setaria faberi [21]): 50%
Activity (Avena fatua [22]): 0%
Activity (Triticum aestivum [23]): 10%
Activity (Alopecurus myosuroides [24]): 0%

Cc1cc(C)c(C2C(=O)N3C[C@H]4CCCC[C@H]4CN3C2=O)c(C)c1 (stereo not given in full)
Activity (Hordeum vulgare [7]): 60%
Activity (Triticum aestivum [8]): 50%
Activity (Alopecurus myosuroides [9]): 60%
Activity (Setaria faberi [10]): 60%
Activity (Avena fatua [11]): 80%
Activity (Lolium perenne [12]): 90%

CCc1cc(C)cc(CC)c1-c1c(OC(=O)N(CC)CC)n2n(c1=O)CCOCC2
Activity (Alopecurus myosuroides [13]): 0%
Activity (Setaria faberi [14]): 0%
Activity (Lolium perenne [15]): 0%
Activity (Avena fatua [16]): 0%
Activity (Triticum aestivum [17]): 0%
Activity (Hordeum vulgare [18]): 0%
